From patent US10940201B2, “Nucleic acid derivative having immunostimulatory activity” (Shionogi & Co., Ltd., priority 2015, dated 2021) come the findings set out here.

The test system of one assay is recombinant PCRV protein. Description: Inducibility of antibody production in immunization by PCRV antigen vaccine (antibody titer). The class given is in vivo. The following applies: A/J mice, recombinant PCRV protein with adjuvant, intradermal; antiserum Day 33; FIG. 15.
Another assay has as its target T1, human TLR9 (Homo sapiens, UniProt Q9NR96).
T1 construct: host or cells: HEK-Blue hTLR9 cells (HEK293)
T1 sequence (Q9NR96 26-1032): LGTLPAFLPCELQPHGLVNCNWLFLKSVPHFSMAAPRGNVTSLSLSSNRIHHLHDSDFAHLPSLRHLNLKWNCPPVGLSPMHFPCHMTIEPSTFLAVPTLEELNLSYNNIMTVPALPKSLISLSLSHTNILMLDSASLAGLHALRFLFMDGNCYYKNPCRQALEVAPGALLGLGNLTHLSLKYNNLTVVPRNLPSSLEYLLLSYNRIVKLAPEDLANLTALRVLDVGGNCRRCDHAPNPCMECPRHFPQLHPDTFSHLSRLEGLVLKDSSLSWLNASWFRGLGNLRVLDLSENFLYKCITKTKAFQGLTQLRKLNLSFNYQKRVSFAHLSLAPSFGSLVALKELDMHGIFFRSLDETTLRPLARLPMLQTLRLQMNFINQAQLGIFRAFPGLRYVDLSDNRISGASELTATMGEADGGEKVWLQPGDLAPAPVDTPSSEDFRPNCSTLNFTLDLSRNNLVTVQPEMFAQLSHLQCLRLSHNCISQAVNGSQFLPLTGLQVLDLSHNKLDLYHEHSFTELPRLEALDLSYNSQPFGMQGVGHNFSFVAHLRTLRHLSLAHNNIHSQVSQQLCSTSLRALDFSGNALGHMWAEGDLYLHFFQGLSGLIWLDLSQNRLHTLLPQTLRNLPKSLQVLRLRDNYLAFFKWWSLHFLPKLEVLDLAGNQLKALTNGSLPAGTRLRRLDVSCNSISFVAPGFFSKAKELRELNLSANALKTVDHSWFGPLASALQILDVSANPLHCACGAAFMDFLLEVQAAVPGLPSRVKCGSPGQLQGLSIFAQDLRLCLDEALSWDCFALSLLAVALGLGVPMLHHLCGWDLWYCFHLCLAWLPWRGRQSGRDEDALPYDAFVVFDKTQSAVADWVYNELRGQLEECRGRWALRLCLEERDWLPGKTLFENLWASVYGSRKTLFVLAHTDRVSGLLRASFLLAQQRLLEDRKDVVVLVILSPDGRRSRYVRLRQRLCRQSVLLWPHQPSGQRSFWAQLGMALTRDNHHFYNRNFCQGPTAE
Briefly: Reporter assay with HEK-Blue hTLR9 cells (TLR9 agonist activity). The format is cell-based. The following applies: HEK-Blue hTLR9 cells, 16 hours. How it is done:
HEK-Blue™ hTLR9 cells (Invivogen) used for the reporter assay were made by introducing human TLR9 gene and a reporter gene that secretory alkaline phosphatase gene bound to NF-kB-AP-1 binding region sequence in HEK293 cells, and are the cells stably expressing the both genes. 3.6×10^4 of the cells suspended in HEK-Blue™ Detection ([…]) comprising substrates against the alkaline phosphatase were seeded on the 96 well plate, and 3 nM to 30 μM of a lipid binding double-stranded oligonucleotide of the present invention, the known CpG oligonucleotides (ODN2006, SEQ-49), or adjuvant based on design in Patent Document 1, i.e., ssCpG ODN introducing a lipid ligand (SEQ-142, 143 or 144) was added. After culturing in a 37° C., 5% CO2 incubator for 16 hours, absorbency at 620 nm was measured using the culture supernatant developed a color. The result value was analyzed with TIBCO Spotfire software, and calculated the 50% effective concentration (EC50) of each oligonucleotide.
Background: A reporter such as luciferase makes a cellular process visible.

Another assay has as its system B16F10 cells. Description: Anti-tumor effect in the absence of a tumor antigen peptide. The class given is in vivo, mouse. The following applies: Table 69, compared to ODN2006 (SEQ-49). How it is done: After immunization by TRP2 peptide vaccine, B16F10 cells (ATTC) which is mouse melanoma expressing TRP2 protein was subcutaneously transplanted to evaluate anti-tumor effect. In a similar method to Example 3 A), on the next day that tetramer-positive ratio in peripheral blood of mouse vaccinated twice every 7 days was observed, B16F10 cells (1×10^5 cells/mouse) were subcutaneously transplanted in the right shoulder. The major and minor axes of the engrafted tumor were measured every 2 to 3 days, and the tumor volume was calculated by the formula: (major axis×minor axis^2)/2 Calculation method for indicators of anti-tumor effect For the adjuvant comprising ODN1826 100·(average tumor volume of adjuvant group)/(average tumor volume of ODN1826 group) For the adjuvant comprising ODN2006 100·(average tumor volume of adjuvant group)/(average tumor volume of ODN2006 group)
Antigen-specific CTL inducibility and anti-tumor effect of ODN2006 (SEQ-49) and SEQ-121 in the absence of a tumor antigen peptide were evaluated. In similar methods of A) and B) of Example 3, the effect of vaccine without a tumor antigen peptide was verified. Both of the antigen-specific CTL values of SEQ-49 and SEQ-121 were undetectable.

The test system of the next assay is antigen-specific CTL. Description: Antigen-specific CTL inducibility in the absence of a tumor antigen peptide. The class given is in vivo, mouse. How it is done:
On 7 days after second vaccination, the blood was collected, red blood cells was removed by BD Pharm Lyse (BD pharmingen), and the white blood cells were suspended in FACS buffer (1% fetal bovine serum, 2 mM PBS with EDTA). Anti-mouse CD16/32 monoclonal antibody (BioXcell) was added thereto, and Fc receptor blocking was carried out at 4° C. for 30 minutes. […] Then, staining was carried out with DAPI (Invitrogen) and the cells were washed twice with FACS buffer. It was resuspended in FACS buffer and analyzed by FACS verse Flow Cytometer (BD bioscience) and FAC Suite software (BD bioscience). For analysis, after DAPI negative fraction was gated, white blood cells fraction were provided using forward and side-way scattering as indicators. In the white blood cells fraction, both positive cells of Alexa 647-CD8 and PE-H-2Kb Tetramer were defined as CTLs. CTL ratio in white blood cells was used for evaluation.

Like-named read-outs stand apart in the source and are kept apart here.

Protocol for recombinant PCRV protein: Perv nucleotide sequence (SEQ ID NO: 48) derived from Pseudomonas aeruginosa Strain PAO1 was cloned at NdeI-XhoI site in pET21a vector, and Escherichia coli strain BL21 (DE3) was transformed with the prepared plasmid. Strain perV-BL21 (DE3) was cultured in 500 mL of LB/Ampicillin liquid medium at 37° C., and 200 μL of 0.1 M IPTG was added when OD600 became 0.5 to induce expression of recombinant PCRV protein. After culturing at 16° C. for 18 hours, bacteria was separated by a centrifuge, and 15 ml of Buffer A (50 mM Tris-HCl (pH8.0), 0.2M NaCl) comprising 0.5% lysozyme (SIGMA Corporation) was added. After putting at 4° C. for 30 minutes, ultrasonic treatment was carried out. After centrifugation at 12,000 rpm for 10 minutes, soluble fraction was obtained. 1 mL of Ni-NTA agarose gel (QIAGEN) was added to Polyprep column (BIO-RAD Laboratories, Inc) and equilibrated with 10 mL of Buffer A. Soluble fraction was added to the column and passed. […] The resulting recombinant PCRV protein was measured the concentration with BCA assay kit (PIERCE) and kept at −80° C. […]
Antibody titer was measured as blow. […] 20 μL/well of 0.5 N sulfuric acid (Nacalai) was added, and absorbance at 450 nm was measured with a plate reader. The dilution ratio when absorbance at 450 nm is 1.0 was calculated and put as an antibody titer.

Consider ODN2006 [SEQ-49], for which the “antibody titer (dilution ratio when absorbance at 450 nm is 1.0)” value in the assay with recombinant PCRV protein is 5.3×10^5. Besides, the EC50 (commonly the concentration that produces a half-maximal response) was 467 nM at human TLR9 (Experiment 1 (Table 28), read-out: EC50); about 467 nM on human TLR9 (Experiment 1, Table 28, read-out: EC50 value); 245 nM on human TLR9 (Experiment 2 (Table 29), read-out: EC50); about 245 nM at human TLR9 (Experiment 2, Table 29, read-out: EC50 value). Besides, in the assay on B16F10 cells, the “Tumor inhibition rate (Day 12 after transplantation)” value came to 0.00%. Moreover, the “Ratio of average value of antigen-specific CTL” value in the assay with antigen-specific CTL (Table 69, in the absence of a tumor antigen peptide) is given as “Undetectable”. In the assay with antigen-specific CTL (absence of a tumor antigen peptide), the “antigen-specific CTL values” was “undetectable”.
